Assay results reported in patent US10143648B2, “Peptide and oside extract of schisandra fruit and improvement in the response of the cutaneous neurosensory system” (LABORATOIRES EXPANSCIENCE, priority 2014, dated 2018).

Legend:
[1] = biological target: T1, TRPV1 receptor (Homo sapiens, UniProt Q8NER1); assay: Intracytoplasmic calcium mobilization (Fluo-4) in sensory neurons stimulated by capsaicin in co-culture with keratinocytes; assay type: cell-based; conditions: capsaicin 10^-6 M, vs. control
T1 construct: Sensory neurons cultured in the presence of normal human epidermal keratinocytes; endogenous in cells; host or cells: sensory neurons in co-culture with normal human epidermal keratinocytes
Procedure: Activation of the TRPV1 receptor on sensory neurons can be evaluated by analyzing the electrical activity of sensory neurons by monitoring variations of the cytoplasmic calcium concentration. Indeed, when cells are stimulated by capsaicin, a massive amount of extracellular calcium enters the neuronal cytoplasm in order to trigger electrical activity and to cause a massive release of neuropeptides in the extracellular space. The variation of the level of fluorescence is analyzed by the incorporation of a calcium-dependent fluorescent probe (Fluo-4) in the cells. Thus, during the increase in calcium in the cells, the level of fluorescence increases in the cell body of the neurons. The higher this level, the higher the stimulation of the neurons. Sensory neurons cultured in the presence of normal human epidermal keratinocytes were incubated in the presence of the peptide and oside extract of Schisandra sphenanthera at concentrations of 0.005%, 0.01%, 0.05% and 0.1% (DM) or the reference molecule, capsazepine, at a concentration of 10^−5 M (Sigma). After 60 minutes of pre-incubation, the fluorescent probe, Fluo-4 (Molecular probe), was added to the culture medium and the cells were incubated 30 minutes. […] The significance of the results was confirmed by Bartlett's test.

[2] = tested on: CGRP; assay: CGRP release by sensory neurons stimulated by capsaicin in co-culture with keratinocytes; assay type: cell-based; conditions: 60 min pre-incubation, extract 0.005%-0.1% (DM) or capsazepine 10^-5 M, capsaicin 10^-7 M, 15 min
Procedure: Sensory neurons were cultured in the presence of normal human epidermal keratinocytes. After 3 days of co-culture, the neurons project extensions in the form of free endings in contact with the keratinocytes. The cells were then incubated in the presence of the peptide and oside extract of Schisandra Sphenanthera at concentrations of 0.005%, 0.01%, 0.05% and 0.1% (DM) or the reference molecule, capsazepine, at a concentration of 10^−5 M (Sigma). After 60 minutes of pre-incubation, the neurons (in co-culture) were stimulated by capsaicin at a concentration of 10^−7 M (Sigma). After 15 minutes of stimulation, the culture supernatants were collected in order to assay the released CGRP. The CGRP assay was carried out using the CGRP assay kit (SpiBio). The significance of the results was confirmed by one-way analysis of variance followed by Dunnett's test.

T1 sequence (Q8NER1 whole entry): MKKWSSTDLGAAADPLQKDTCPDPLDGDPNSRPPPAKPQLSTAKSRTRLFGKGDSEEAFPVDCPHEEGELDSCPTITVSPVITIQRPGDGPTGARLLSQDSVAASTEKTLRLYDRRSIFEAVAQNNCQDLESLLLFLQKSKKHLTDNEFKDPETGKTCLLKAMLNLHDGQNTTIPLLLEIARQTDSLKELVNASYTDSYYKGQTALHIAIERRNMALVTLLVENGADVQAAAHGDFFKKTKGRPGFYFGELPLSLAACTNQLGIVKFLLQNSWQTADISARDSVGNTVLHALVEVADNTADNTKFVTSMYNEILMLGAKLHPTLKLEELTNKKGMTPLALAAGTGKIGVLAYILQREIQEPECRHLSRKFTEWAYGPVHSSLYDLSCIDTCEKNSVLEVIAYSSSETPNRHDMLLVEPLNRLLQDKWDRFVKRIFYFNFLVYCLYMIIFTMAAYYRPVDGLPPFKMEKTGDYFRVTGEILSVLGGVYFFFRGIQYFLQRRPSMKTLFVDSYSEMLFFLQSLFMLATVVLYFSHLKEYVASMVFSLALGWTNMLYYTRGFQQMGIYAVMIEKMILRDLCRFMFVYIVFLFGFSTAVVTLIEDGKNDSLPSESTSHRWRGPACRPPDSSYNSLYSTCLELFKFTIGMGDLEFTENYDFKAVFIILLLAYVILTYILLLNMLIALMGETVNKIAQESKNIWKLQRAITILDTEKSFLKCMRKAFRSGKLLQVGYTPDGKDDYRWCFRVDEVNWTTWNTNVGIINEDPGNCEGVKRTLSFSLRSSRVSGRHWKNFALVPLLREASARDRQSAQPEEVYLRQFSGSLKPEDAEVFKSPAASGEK

Compound: COc1cc(CNC(=O)CCCC/C=C/C(C)C)ccc1O [capsaicin]
- level of fluorescence (quantity of intracytoplasmic calcium) after addition of the stimulus [1]: significant increase in the level of fluorescence

Compound: Oc1cc2c(cc1O)CN(C(=S)NCCc1ccc(Cl)cc1)CCC2 [capsazepine]
- release of CGRP induced by capsaicin [2]: inhibitory effect
